Results as given in patent publication US20040213766A1, “Compositions and methods for treating transplants” (priority 2002, published 2004).

Columns and labels:
[1] = tested on: severed limbs; test: Limb replantation after perfusion of amputated hind legs; type: in vivo; conditions: rat hind leg replantation, perfusion every 3 hours
Protocol: Hind legs were amputated from rats, and the major feed arteries for the severed limbs were cannulated for infusion of A-FUV, loaded in a 1 mM ATP solution. The limbs were perfused with A-FUV or control solutions (see Table 1) every 3 hours, or as deemed necessary by the change in tissue ATP levels. The arterial pressure of the limbs were monitored during infusion to decrease the chance of flow-induced injury, and to monitor the overall preservation of the severed limbs (higher perfusion pressures may indicate limb morbidity). Following the preservation period, the limbs were flushed with Ringers to remove traces of A-FUV. The limbs were then surgically reattached, and external indices of limb function after anastomoses were evaluated (limb color, evidence of microthrombi, coagulation, limb temperature). The animals prior to and following replantation received heparin to prevent hemostasis. In addition, animals were placed on antibiotic therapy to reduce infection. Control limbs were perfused with vehicle only, vehicle and ATP only, or vehicle and FUVs only.

[2] = tested on: HUVEC; test: 3H-ATP tracer incorporation into HUVEC and repeated washes; type: cell-based, human; conditions: cells washed repeatedly
Protocol: To confirm the carboxyfluorescein studies, ^3H-ATP was used as a tracer instead of the fluor. Vesicles were incubated with HUVEC for either 5, 10, 15, 30, 45, 60, 90, 120, or 240 minutes.

## Nc1ncnc2c1ncn2[C@@H]1O[C@H](COP(=O)(O)OP(=O)(O)OP(=O)(O)O)[C@@H](O)[C@H]1O [ATP]
[1]
  Limb outcome: necrosis

## Nc1ncnc2c1ncn2[C@@H]1O[C@H](COP(=O)(O)OP(=O)(O)OP(=O)(O)O)[C@@H](O)[C@H]1O [free ^3H-ATP, ^3H-ATP]
[2]
  radioactivity of the cells after repeated washes: complete loss of radioactivity
